Experimental data as given in PubChem BioAssay (NCI).
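Protocol summary: plate cells (96-well), add compound at 5 concentrations, incubate 48 h, interpolate endpoints linearly. Here, GI50 denotes the concentration required for 50% inhibition of growth. Definition used: TGI = concentration required for complete inhibition of growth.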

Experiments:
Experiment in all cases: DTP human tumour cell line panel, 48 h
[1] = system: 786-0 renal
[2] = system: A498 renal
[3] = system: A549 NSCLC
[4] = system: ACHN renal
[5] = system: BT-549 breast
[6] = system: CAKI-1 renal
[7] = system: CCRF-CEM leukemia
[8] = system: COLO 205 colon
[9] = system: DU-145 prostate
[10] = system: EKVX NSCLC
[11] = system: HCC-2998 colon
[12] = system: HCT-116 colon
[13] = system: HCT-15 colon
[14] = system: HL-60(TB) leukemia
[15] = system: HOP-62 NSCLC
[16] = system: HOP-92 NSCLC
[17] = system: HS 578T breast
[18] = system: HT29 colon
[19] = system: IGROV1 ovarian
[20] = system: K-562 leukemia
[21] = system: KM12 colon
[22] = system: LOX IMVI melanoma
[23] = system: M14 melanoma
[24] = system: MALME-3M melanoma
[25] = system: MDA-MB-231 breast
[26] = system: MDA-MB-435
[27] = system: MOLT-4 leukemia
[28] = system: NCI-H226 lung
[29] = system: NCI-H23 lung
[30] = system: NCI-H460 lung
[31] = system: NCI-H522 lung
[32] = system: NCI/ADR-RES ovarian
[33] = system: OVCAR-3 ovarian
[34] = system: OVCAR-4 ovarian
[35] = system: OVCAR-5 ovarian
[36] = system: OVCAR-8 ovarian
[37] = system: PC-3 prostate
[38] = system: RXF 393 renal
[39] = system: SF-268 CNS
[40] = system: SF-295 CNS
[41] = system: SF-539 CNS
[42] = system: SK-MEL-2 melanoma
[43] = system: SK-MEL-28 melanoma
[44] = system: SK-MEL-5 melanoma
[45] = system: SK-OV-3 ovarian
[46] = system: SN12C renal
[47] = system: SNB-19 CNS
[48] = system: SNB-75 CNS
[49] = system: SW-620 colon
[50] = system: TK-10 renal
[51] = system: U251 CNS
[52] = system: UACC-257 melanoma
[53] = system: UACC-62 melanoma
[54] = system: UO-31 renal
[55] = system: MCF7 breast
[56] = system: RPMI-8226 leukemia
[57] = system: SR leukemia
[58] = system: T-47D breast

Cc1cc(N)c2cc(NC(=O)/C=C\c3ccccc3Cl)ccc2n1
GI50 [1]: 0.924 µM
TGI [1]: 2.42 µM
GI50 [2]: 1.5 µM
TGI [2]: 2.95 µM
GI50 [3]: 1.71 µM
TGI [3]: 3.25 µM
GI50 [4]: 1.83 µM
TGI [4]: 3.26 µM
GI50 [5]: 1.58 µM
TGI [5]: 3.01 µM
GI50 [6]: 1.77 µM
TGI [6]: 3.24 µM
GI50 [7]: 0.204 µM
TGI [7]: 0.448 µM
GI50 [8]: 0.266 µM
TGI [8]: 0.597 µM
GI50 [9]: 1.45 µM
TGI [9]: 2.87 µM
GI50 [10]: 1.53 µM
TGI [10]: 3.1 µM
GI50 [11]: 0.485 µM
TGI [11]: 1.74 µM
GI50 [12]: 0.208 µM
TGI [12]: 0.416 µM
GI50 [13]: 1.77 µM
TGI [13]: 3.27 µM
GI50 [14]: 1.67 µM
TGI [14]: 3.31 µM
GI50 [15]: 0.725 µM
TGI [15]: 1.73 µM
GI50 [16]: 1.56 µM
TGI [16]: 3.27 µM
GI50 [17]: 1.82 µM
TGI [17]: 3.88 µM
GI50 [18]: 0.41 µM
TGI [18]: 1.5 µM
GI50 [19]: 1.61 µM
TGI [19]: 3.07 µM
GI50 [20]: 0.416 µM
TGI [20]: 1.48 µM
GI50 [21]: 0.767 µM
TGI [21]: 2.11 µM
GI50 [22]: 0.212 µM
TGI [22]: 0.447 µM
GI50 [23]: 0.748 µM
TGI [23]: 2.02 µM
GI50 [24]: 2.05 µM
TGI [24]: 3.89 µM
GI50 [25]: 1.21 µM
TGI [25]: 2.47 µM
GI50 [26]: 1.15 µM
TGI [26]: 2.52 µM
GI50 [27]: 1.09 µM
TGI [27]: 2.54 µM
GI50 [28]: 2.01 µM
TGI [28]: 3.69 µM
GI50 [29]: 1.73 µM
TGI [29]: 3.32 µM
GI50 [30]: 1.19 µM
TGI [30]: 2.7 µM
GI50 [31]: 1.71 µM
TGI [31]: 3.29 µM
GI50 [32]: > 24.2 µM
TGI [32]: > 100 µM
GI50 [33]: 1.31 µM
TGI [33]: 2.7 µM
GI50 [34]: 0.365 µM
TGI [34]: 0.971 µM
GI50 [35]: 1.33 µM
TGI [35]: 2.69 µM
GI50 [36]: 1.61 µM
TGI [36]: 3.12 µM
GI50 [37]: 1.46 µM
TGI [37]: 2.84 µM
GI50 [38]: 1.45 µM
TGI [38]: 2.91 µM
GI50 [39]: 1.44 µM
TGI [39]: 2.97 µM
GI50 [40]: 1.31 µM
TGI [40]: 2.71 µM
GI50 [41]: 1.69 µM
TGI [41]: 3.07 µM
GI50 [42]: 1.83 µM
TGI [42]: 3.34 µM
GI50 [43]: 0.447 µM
TGI [43]: 0.886 µM
GI50 [44]: 1.46 µM
TGI [44]: 2.8 µM
GI50 [45]: 1.85 µM
TGI [45]: 3.27 µM
GI50 [46]: 1.36 µM
TGI [46]: 2.69 µM
GI50 [47]: 1.56 µM
TGI [47]: 2.95 µM
GI50 [48]: 1.7 µM
TGI [48]: 3.21 µM
GI50 [49]: 0.214 µM
TGI [49]: 0.478 µM
GI50 [50]: 2.11 µM
TGI [50]: 3.69 µM
GI50 [51]: 0.269 µM
TGI [51]: 0.724 µM
GI50 [52]: 1.76 µM
TGI [52]: 3.23 µM
GI50 [53]: 1.05 µM
TGI [53]: 2.49 µM
GI50 [54]: 1.78 µM
TGI [54]: 3.22 µM

O=C(/C=C/c1cccc(Cl)c1)c1ccccc1
GI50 [1]: 10.6 µM
TGI [1]: 22.8 µM
GI50 [2]: 10.2 µM
TGI [2]: 21.9 µM
GI50 [3]: 14.9 µM
TGI [3]: 29.3 µM
GI50 [4]: 10.5 µM
TGI [4]: 23.3 µM
GI50 [6]: 2.73 µM
TGI [6]: 11.5 µM
GI50 [7]: 3.49 µM
TGI [7]: 23.2 µM
GI50 [8]: 16.8 µM
TGI [8]: 31.7 µM
GI50 [9]: 11.7 µM
TGI [9]: 24.2 µM
GI50 [10]: 14.8 µM
TGI [10]: 29.3 µM
GI50 [11]: 13 µM
TGI [11]: 26.7 µM
GI50 [12]: 1.44 µM
TGI [12]: 2.97 µM
GI50 [13]: 4.22 µM
TGI [13]: 22.7 µM
GI50 [14]: 2.96 µM
TGI [14]: 6.58 µM
GI50 [15]: 15.7 µM
TGI [15]: 29.9 µM
GI50 [16]: 16.3 µM
TGI [16]: 32.8 µM
GI50 [17]: 2.1 µM
TGI [17]: 7.45 µM
GI50 [19]: 2.06 µM
TGI [19]: 6.41 µM
GI50 [20]: 2.86 µM
TGI [20]: 18.9 µM
GI50 [21]: 1.96 µM
TGI [21]: 4.86 µM
GI50 [22]: 3.06 µM
TGI [22]: 10.8 µM
GI50 [23]: 3.78 µM
TGI [23]: 13.5 µM
GI50 [24]: 14.4 µM
TGI [24]: 33.7 µM
GI50 [55]: 1.68 µM
TGI [55]: 10.3 µM
GI50 [25]: 12.2 µM
TGI [25]: 28.5 µM
GI50 [26]: 2 µM
TGI [26]: 5.43 µM
GI50 [27]: 4.07 µM
TGI [27]: 36.4 µM
GI50 [28]: 14.4 µM
TGI [28]: 29.6 µM
GI50 [29]: 14.8 µM
TGI [29]: 29.6 µM
GI50 [30]: 4.86 µM
TGI [30]: 18 µM
GI50 [32]: 16.3 µM
TGI [32]: 49.8 µM
GI50 [33]: 4.09 µM
TGI [33]: 15.4 µM
GI50 [34]: 13.6 µM
TGI [34]: 26.8 µM
GI50 [35]: 11.2 µM
TGI [35]: 24.5 µM
GI50 [36]: 3.32 µM
TGI [36]: 11.4 µM
GI50 [37]: 4.13 µM
TGI [37]: 22.3 µM
GI50 [56]: 3.09 µM
TGI [56]: 9.04 µM
GI50 [38]: 12.2 µM
TGI [38]: 24.8 µM
GI50 [39]: 11.5 µM
TGI [39]: 26.2 µM
GI50 [40]: 3.88 µM
TGI [40]: 18 µM
GI50 [41]: 13.6 µM
TGI [41]: 28.8 µM
GI50 [43]: 15.9 µM
TGI [43]: 30.2 µM
GI50 [44]: 13.2 µM
TGI [44]: 26.3 µM
GI50 [45]: 16.7 µM
TGI [45]: 30.9 µM
GI50 [46]: 14.6 µM
TGI [46]: 28.3 µM
GI50 [47]: 11.7 µM
TGI [47]: 25.8 µM
GI50 [48]: 15.1 µM
TGI [48]: 28.6 µM
GI50 [57]: 2.6 µM
TGI [57]: 31.5 µM
GI50 [49]: 1.47 µM
TGI [49]: 2.97 µM
GI50 [58]: 12.7 µM
TGI [58]: 32.2 µM
GI50 [51]: 2.67 µM
TGI [51]: 7.89 µM
GI50 [52]: 15.1 µM
TGI [52]: 29 µM
GI50 [53]: 13.9 µM
TGI [53]: 27.9 µM
GI50 [54]: 6.55 µM
TGI [54]: 21.9 µM
